Counter-ions that a name gives are not always drawn. Like-named read-outs stand apart in the source and are kept apart here.
Key:
SUDHL5 cells [1] = assay: Induction of cytotoxicity in SUDHL5 cells (Assay 6); format: cell-based; details: 5 h, CellTiter-Glo, read-out: Cytotox SUDHL5 IC50 (median)
In short: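 Run alongside apoptosis measurements, this cytotoxicity readout used cells treated with compound for 5 h at 37 °C and quantified ATP-based luminescence with CellTiter-Glo.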

AMO-1 cells = assay: Antiproliferation assay AMO-1 (Assay 7); format: cell-based
In short: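 72 h antiproliferation, 37 °C, CellTiter-Glo luminescence. Day 0 plate = CI; DMSO = C0; IC50 calculated from these.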

SUDHL5 cells [2] = assay: Induction of caspase-3/7 activity in SUDHL5 cells (Assay 4); format: cell-based
In short: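 Read-out: Caspase-Glo 3/7 luminescence (1 h, 37 °C) after cells, plated overnight, were treated with compounds for 3 h at 37 °C. Signal corrected for cell-free medium background and expressed relative to DMSO control mean.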

BCL-2 = BCL-2 (Homo sapiens (Human), UniProt P10415); assay: Protein-protein interaction assay BCL-2/Bad BH3 peptide (BCL-2 assay, TR-FRET); format: binding; details: read-out: BCL-2 Assay IC50 (median)
Sequence of BCL-2 (P10415 1-211): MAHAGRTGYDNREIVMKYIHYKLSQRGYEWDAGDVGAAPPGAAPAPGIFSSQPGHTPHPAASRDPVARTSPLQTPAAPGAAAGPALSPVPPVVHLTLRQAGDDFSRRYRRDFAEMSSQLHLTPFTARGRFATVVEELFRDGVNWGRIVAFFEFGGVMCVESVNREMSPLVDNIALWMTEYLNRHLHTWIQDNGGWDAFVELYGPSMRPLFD
In short: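 TR-FRET competition: 665/620 nm emission ratio after 330-350 nm excitation, normalized to DMSO controls and fitted to a 4-parameter model for IC50. Used 1 nM His-BCL-2 (residues 1-211) with 1 nM biotin-Bad BH3 tracer, Tris pH 7 with NaCl, KF, DTT. Compound/protein preincubation 10 min at 22° C. Read after 1 h 22° C plus overnight 4° C.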

[3] = Homo sapiens, AMO1, 72 h, 72 h, CellTiter-Glo, read-out: Antiproli AMO-1 IC50 median
[4] = Homo sapiens, SU-DHL-5, 3 h, caspase-3/7 induction, 3 h, read-out: Caspase SUDHL5 EC50 (median)
[5] = 72 h, CellTiter-Glo, read-out: Antiproli AMO-1 IC50 median
[6] = caspase-3/7 induction, 3 h, read-out: Caspase SUDHL5 EC50 (median)
[7] = read-out: Antiproli AMO-1 IC50 median, 72 h, CellTiter-Glo
[8] = read-out: Caspase SUDHL5 EC50 (median), caspase-3/7 induction, 3 h

Structure (SMILES) | IC50 (SUDHL5 cells [1]; Homo sapiens, SU-DHL-5, 5 h) [µM] | IC50 (AMO-1 cells; [3]) [µM] | EC50 (SUDHL5 cells [2]; [4]) [µM] | IC50 (BCL-2) [µM] | IC50 (SUDHL5 cells [1]) [µM] | IC50 (AMO-1 cells; [5]) [µM] | EC50 (SUDHL5 cells [2]; [6]) [µM] | IC50 (AMO-1 cells; [7]) [µM] | EC50 (SUDHL5 cells [2]; [8]) [µM] | IC50 (AMO-1 cells; Homo sapiens, AMO1, 72 h, read-out: Antiproli AMO-1 IC50 median, 72 h, CellTiter-Glo) [µM] | EC50 (SUDHL5 cells [2]; Homo sapiens, SU-DHL-5, 3 h, read-out: Caspase SUDHL5 EC50 (median), caspase-3/7 induction, 3 h) [µM]
Cc1c2c(nn1C)C(CCN1CCOCC1)OCCCCn1c(C(=O)O)c(CCCOc3cccc4cc(F)ccc34)c3ccc(F)c-2c31 (racemic) [Example 19, (rac)-4-fluoro-7-{3-[(6-fluoronaphthalen-1-yl)oxy]propyl}-2,3-dimethyl-15-[2-(morpholin-4-yl)ethyl]-2,10,11,12,13,15-hexahydropyrazolo[4′,3′:9,10][1,6]oxazacycloundecino[8,7,6-hi]indole-8-carboxylic Acid] | 0.082 | 0.102 | 0.073 | > 20 |  |  |  |  |  |  | 
Cc1c2c(nn1C)C(CCN1CCOCC1)OCCCCn1c(C(=O)O)c(CCCOc3cccc4cc(F)ccc34)c3ccc(F)c-2c31 (single isomer, unassigned; enantiomer 2) [Example 21, 4-fluoro-7-{3-[(6-fluoronaphthalen-1-yl)oxy]propyl}-2,3-dimethyl-15-[2-(morpholin-4-yl)ethyl]-2,10,11,12,13,15-hexahydropyrazolo[4′,3′:9,10][1,6]oxazacycloundecino[8,7,6-hi]indole-8-carboxylic Acid (Enantiomer 2)] | 12 | > 33 | 11 | > 20 |  |  |  |  |  |  | 
Cc1c2c(nn1C)C(CCN1CCOCC1)OCCCCn1c(C(=O)O)c(CCCOc3cccc4ccccc34)c3ccc(Cl)c-2c31 (single isomer, unassigned; enantiomer 1) [Example 14, 4-chloro-2,3-dimethyl-15-[2-(morpholin-4-yl)ethyl]-7-{3-[(naphthalen-1-yl)oxy]propyl}-2,10,11,12,13,15-hexahydropyrazolo[4′,3′:9,10][1,6]oxazacycloundecino[8,7,6-hi]indole-8-carboxylic Acid (Enantiomer 1)] |  |  |  | > 20 | 0.023 | 0.0431 | 0.0098 |  |  |  | 
CCC1OCCCCn2c(C(=O)O)c(CCCOc3cccc4ccccc34)c3ccc(Cl)c(c32)-c2c1nn(C)c2C (single isomer, unassigned; enantiomer 2) [Example 30, (−)-4-chloro-15-ethyl-2,3-dimethyl-7-{3-[(naphthalen-1-yl)oxy]propyl}-2,10,11,12,13,15-hexahydropyrazolo[4′,3′:9,10][1,6]oxazacycloundecino[8,7,6-hi]indole-8-carboxylic Acid—N-ethylethanamine Salt (Enantiomer 2)] |  |  |  | > 20 | 29 |  |  | 31.6 | > 33 |  | 
Cc1c2c(nn1C)C(CCN1CCOCC1)OCCCCn1c(C(=O)O)c(CCCOc3cccc4cc(F)ccc34)c3ccc(Cl)c-2c31 (single isomer, unassigned; enantiomer 1) [Example 17, 4-chloro-7-{3-[(6-fluoronaphthalen-1-yl)oxy]propyl}-2,3-dimethyl-15-[2-(morpholin-4-yl)ethyl]-2,10,11,12,13,15-hexahydropyrazolo[4′,3′:9,10][1,6]oxazacycloundecino[8,7,6-hi]indole-8-carboxylic Acid—N-ethylethanamine (Enantiomer 1)] | 0.011 |  |  | > 20 |  |  |  |  |  | 0.0282 | 0.0058
Cc1c2c(nn1C)C(C1CC1)OCCCCn1c(C(=O)O)c(CCCOc3cccc4ccccc34)c3ccc(Cl)c-2c31 (single isomer, unassigned; enantiomer 2) [Example 36, (−)-4-chloro-15-cyclopropyl-2,3-dimethyl-7-{3-[(naphthalen-1-yl)oxy]propyl}-2,10,11,12,13,15-hexahydropyrazolo[4′,3′:9,10][1,6]oxazacycloundecino[8,7,6-hi]indole-8-carboxylic Acid N-ethylethanamine Salt (Enantiomer 2)] |  |  |  | 14.6 | 21 |  |  | 15.8 | > 33 |  | 
CCc1c2c(nn1C)C(CCO)OCCCCn1c(C(=O)O)c(CCCOc3cccc4cc(F)ccc34)c3ccc(Cl)c-2c31 (racemic) [Example 44, (rac)-4-chloro-3-ethyl-7-{3-[(6-fluoronaphthalen-1-yl)oxy]propyl}-(15-rac)-(2-hydroxyethyl)-2-methyl-2,10,11,12,13,15-hexahydropyrazolo[4′,3′:9,10][1,6]oxazacycloundecino[8,7,6-hi]indole-8-carboxylic Acid] | 0.14 | 0.161 | 0.12 | > 20 |  |  |  |  |  |  | 
COCCC1OCCCCn2c(C(=O)O)c(CCCOc3cccc4ccccc34)c3ccc(Cl)c(c32)-c2c1nn(C)c2C (racemic) [Example 37, (rac)-4-chloro-(15-rac)-(2-methoxyethyl)-2,3-dimethyl-7-{3-[(naphthalen-1-yl)oxy]propyl}-2,10,11,12,13,15-hexahydropyrazolo[4′,3′:9,10][1,6]oxazacycloundecino[8,7,6-hi]indole-8-carboxylic Acid] | 0.39 | 0.536 | 0.25 | > 20 |  |  |  |  |  |  | 
CCc1c2c(nn1C)C(CC(C)(C)O)OCCCCn1c(C(=O)O)c(CCCOc3cccc4cc(F)ccc34)c3ccc(Cl)c-2c31 (single isomer, unassigned; enantiomer 21) [Example 54, (−)-4-chloro-3-ethyl-7-{3-[(6-fluoronaphthalen-1-yl)oxy]propyl}-15-(2-hydroxy-2-methylpropyl)-2-methyl-2,10,11,12,13,15-hexahydropyrazolo[4′,3′:9,10][1,6]oxazacycloundecino[8,7,6-hi]indole-8-carboxylic Acid—N-ethylethanamine Salt (Enantiomer 21] |  |  |  | > 20 | 9.4 |  |  | 27.8 | 6.5 |  | 
Cc1c2c(nn1C)C(C1CC1)OCCCCn1c(C(=O)O)c(CCCOc3cccc4ccccc34)c3ccc(Cl)c-2c31 (single isomer, unassigned; enantiomer 1) [Example 35, (+)-4-chloro-15-cyclopropyl-2,3-dimethyl-7-{3-[(naphthalen-1-yl)oxy]propyl}-2,10,11,12,13,15-hexahydropyrazolo[4′,3′:9,10][1,6]oxazacycloundecino[8,7,6-hi]indole-8-carboxylic Acid N-ethylethanamine Salt (Enantiomer 1)] |  |  |  | > 20 | 2 |  |  | 3.71 | 2.1 |  | 
CCc1c2c(nn1C)C(CCC1CCOCC1)OCCCCn1c(C(=O)O)c(CCCOc3cccc4cc(F)ccc34)c3ccc(Cl)c-2c31 (racemic) [Example 60, (rac)-4-chloro-3-ethyl-7-{3-[(6-fluoronaphthalen-1-yl)oxy]propyl}-2-methyl-(15-rac)-[2-(oxan-4-yl)ethyl]-2,10,11,12,13,15-hexahydropyrazolo[4′,3′:9,10][1,6]oxazacycloundecino[8,7,6-hi]indole-8-carboxylic Acid] |  | 0.0929 | 0.05 | 14.1 | 0.077 |  |  |  |  |  | 
CCc1c2c(nn1C)C(CCC(C)(C)O)OCCCCn1c(C(=O)O)c(CCCOc3cccc4cc(F)ccc34)c3ccc(Cl)c-2c31 (racemic) [Example 74, (rac)-4-chloro-3-ethyl-7-{3-[(6-fluoronaphthalen-1-yl)oxy]propyl}-(15-rac)-(3-hydroxy-3-methylbutyl)-2-methyl-2,10,11,12,13,15-hexahydropyrazolo[4′,3′:9,10][1,6]oxazacycloundecino[8,7,6-hi]indole-8-carboxylic Acid] | 0.051 | 0.0358 | 0.045 | 19.6 |  |  |  |  |  |  | 
CCc1c2c(nn1C)C(CCO)OCCCCn1c(C(=O)O)c(CCCOc3cccc4cc(F)ccc34)c3ccc(Cl)c-2c31 (single isomer, unassigned; enantiomer 1) [Example 45, (+)-4-chloro-3-ethyl-7-{3-[(6-fluoronaphthalen-1-yl)oxy]propyl}-15-(2-hydroxyethyl)-2-methyl-2,10,11,12,13,15-hexahydropyrazolo[4′,3′:9,10][1,6]oxazacycloundecino[8,7,6-hi]indole-8-carboxylic Acid (Enantiomer 1)] |  |  |  | > 20 | 0.076 | 0.185 | 0.019 |  |  |  | 
CCc1c2c(nn1C)C(Cc1ccccc1)OCCCCn1c(C(=O)O)c(CCCOc3cccc4cc(F)ccc34)c3ccc(Cl)c-2c31 (racemic) [Example 92, (rac)-(rac-15)-benzyl-4-chloro-3-ethyl-7-{3-[(6-fluoro-1-naphthyl)oxy]propyl}-2-methyl-2,10,11,12,13,15-hexahydropyrazolo[4′,3′:9,10][1,6]oxazacycloundecino[8,7,6-hi]indole-8-carboxylic Acid] | 1.2 | 1.36 | 0.96 | 12.2 |  |  |  |  |  |  | 
